Results from ChEMBL document CHEMBL1201862, “PubChem BioAssay data set” (2004).
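A five-concentration, 48-hour dose response in 96-well plates underlies each endpoint, interpolated linearly between surrounding concentrations. GI50 is the concentration that inhibits growth by half.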 Calls of active or inactive are those of the source. No stated cut-off is given here; in the data, active = GI50 up to about 1.1 µM and inactive = higher.

How the values were obtained:
Experiment in all cases: DTP human tumour cell line panel, 48 h
T47D = test system: T47D
A498 = test system: A498
CCRF-CEM = test system: CCRF-CEM
NCI-H23 = test system: NCI-H23
OVCAR-5 = test system: OVCAR-5
HCT-116 = test system: HCT-116
HOP-62 = test system: HOP-62
MOLT-4 = test system: MOLT-4
M14 = test system: M14
MDA-MB-231 = test system: MDA-MB-231
U-251 = test system: U-251
SR = test system: SR
UACC-62 = test system: UACC-62
SF-539 = test system: SF-539
K562 = test system: K562
OVCAR-8 = test system: OVCAR-8
NCI/ADR-RES = test system: NCI/ADR-RES
SK-OV-3 = test system: SK-OV-3
NCI-H522 = test system: NCI-H522
COLO 205 = test system: COLO 205
RPMI-8226 = test system: RPMI-8226
PC-3 = test system: PC-3
A549 = test system: A549
MDA-MB-435 = test system: MDA-MB-435
OVCAR-4 = test system: OVCAR-4
DU-145 = test system: DU-145
KM12 = test system: KM12
Hs-578T = test system: Hs-578T
Malme-3M = test system: Malme-3M
NCI-H460 = test system: NCI-H460
HCC 2998 = test system: HCC 2998
SN12C = test system: SN12C
BT-549 = test system: BT-549
HCT-15 = test system: HCT-15
CAKI-1 = test system: CAKI-1
HT-29 = test system: HT-29
SW-620 = test system: SW-620
UACC-257 = test system: UACC-257
SK-MEL-5 = test system: SK-MEL-5
HOP-92 = test system: HOP-92
RXF 393 = test system: RXF 393
IGROV-1 = test system: IGROV-1
EKVX = test system: EKVX
SF-268 = test system: SF-268
UO-31 = test system: UO-31
OVCAR-3 = test system: OVCAR-3
SNB-75 = test system: SNB-75
786-0 = test system: 786-0
SF-295 = test system: SF-295
HL-60 = test system: HL-60
ACHN = test system: ACHN
SK-MEL-2 = test system: SK-MEL-2
LOX IMVI = test system: LOX IMVI
TK-10 = test system: TK-10
MCF7 = test system: MCF7
SNB-19 = test system: SNB-19
SK-MEL-28 = test system: SK-MEL-28
NCI-H226 = test system: NCI-H226

CCCCc1ccc(Nc2nc(SC)c3[nH]cnc3n2)cc1
GI50 (T47D): > 100 µM (inactive) | GI50 (A498): 18.7 µM (inactive) | GI50 (CCRF-CEM): 6.19 µM (inactive) | GI50 (NCI-H23): 28.6 µM (inactive) | GI50 (OVCAR-5): > 100 µM (inactive) | GI50 (HCT-116): 23.6 µM (inactive) | GI50 (HOP-62): 10.2 µM (inactive) | GI50 (MOLT-4): 2.81 µM (inactive) | GI50 (M14): > 100 µM (inactive) | GI50 (MDA-MB-231): 84.3 µM (inactive) | GI50 (U-251): 26.2 µM (inactive) | GI50 (SR): 2.01 µM (inactive) | GI50 (UACC-62): 45.5 µM (inactive) | GI50 (SF-539): 36.6 µM (inactive) | GI50 (K562): 3.61 µM (inactive) | GI50 (OVCAR-8): 30.2 µM (inactive) | GI50 (NCI/ADR-RES): 23.6 µM (inactive) | GI50 (SK-OV-3): > 43.5 µM (inactive) | GI50 (NCI-H522): 20.6 µM (inactive) | GI50 (COLO 205): > 91.2 µM (inactive) | GI50 (RPMI-8226): > 56 µM (inactive) | GI50 (PC-3): > 100 µM (inactive) | GI50 (A549): > 100 µM (inactive) | GI50 (MDA-MB-435): 5.33 µM (inactive) | GI50 (OVCAR-4): > 100 µM (inactive) | GI50 (DU-145): > 100 µM (inactive) | GI50 (KM12): 17.9 µM (inactive) | GI50 (Hs-578T): 43 µM (inactive) | GI50 (Malme-3M): > 100 µM (inactive) | GI50 (NCI-H460): 13.9 µM (inactive) | GI50 (HCC 2998): > 80.4 µM (inactive) | GI50 (SN12C): > 84.9 µM (inactive) | GI50 (BT-549): > 100 µM (inactive) | GI50 (HCT-15): > 32.9 µM | GI50 (CAKI-1): 16.9 µM (inactive) | GI50 (HT-29): 15.8 µM (inactive) | GI50 (SW-620): 24.5 µM (inactive) | GI50 (UACC-257): > 100 µM (inactive) | GI50 (SK-MEL-5): 17.7 µM (inactive) | GI50 (HOP-92): 15.5 µM (inactive) | GI50 (RXF 393): 28.2 µM (inactive) | GI50 (IGROV-1): 24.7 µM (inactive) | GI50 (EKVX): 24.9 µM (inactive) | GI50 (SF-268): 65.5 µM (inactive) | GI50 (UO-31): > 78.2 µM (inactive) | GI50 (OVCAR-3): > 55 µM (inactive) | GI50 (SNB-75): > 100 µM (inactive) | GI50 (786-0): 16.4 µM (inactive) | GI50 (SF-295): > 47.9 µM (inactive) | GI50 (HL-60): 3.43 µM (inactive) | GI50 (ACHN): 12.7 µM (inactive) | GI50 (SK-MEL-2): > 38.5 µM (inactive) | GI50 (LOX IMVI): > 46.6 µM (inactive) | GI50 (TK-10): 45.2 µM (inactive) | GI50 (MCF7): > 24.4 µM (inactive) | GI50 (SNB-19): 36.6 µM (inactive) | GI50 (SK-MEL-28): > 100 µM (inactive) | GI50 (NCI-H226): > 73.6 µM (inactive)

CC(C)(C)c1cc(C2COC(=O)COCCOCC(=O)OCCOCCO2)cc(C(C)(C)C)c1O (stereo unspecified)
GI50 (T47D): 29.2 µM (inactive) | GI50 (A498): > 80.5 µM (inactive) | GI50 (CCRF-CEM): > 100 µM (inactive) | GI50 (NCI-H23): 42.7 µM (inactive) | GI50 (OVCAR-5): 21.7 µM (inactive) | GI50 (HCT-116): > 68.2 µM (inactive) | GI50 (HOP-62): 36.2 µM (inactive) | GI50 (MOLT-4): > 100 µM (inactive) | GI50 (M14): 42.1 µM (inactive) | GI50 (MDA-MB-231): 46.6 µM (inactive) | GI50 (U-251): 36.7 µM (inactive) | GI50 (SR): 21.8 µM (inactive) | GI50 (UACC-62): 47.9 µM (inactive) | GI50 (SF-539): > 82.8 µM (inactive) | GI50 (K562): > 100 µM (inactive) | GI50 (OVCAR-8): 41.6 µM (inactive) | GI50 (NCI/ADR-RES): > 100 µM (inactive) | GI50 (SK-OV-3): 32.1 µM (inactive) | GI50 (NCI-H522): > 47 µM (inactive) | GI50 (COLO 205): 32.5 µM (inactive) | GI50 (RPMI-8226): > 100 µM (inactive) | GI50 (PC-3): 22.4 µM (inactive) | GI50 (A549): > 100 µM (inactive) | GI50 (MDA-MB-435): 37.3 µM (inactive) | GI50 (OVCAR-4): > 100 µM (inactive) | GI50 (DU-145): 19.5 µM (inactive) | GI50 (KM12): > 100 µM (inactive) | GI50 (Hs-578T): 27.7 µM (inactive) | GI50 (Malme-3M): > 100 µM (inactive) | GI50 (NCI-H460): 49.4 µM (inactive) | GI50 (HCC 2998): 23 µM (inactive) | GI50 (SN12C): 21.8 µM (inactive) | GI50 (BT-549): > 51.1 µM (inactive) | GI50 (HCT-15): 50.2 µM | GI50 (CAKI-1): 18 µM (inactive) | GI50 (HT-29): 37.2 µM (inactive) | GI50 (SW-620): 53.6 µM (inactive) | GI50 (UACC-257): > 71.6 µM (inactive) | GI50 (SK-MEL-5): > 100 µM (inactive) | GI50 (HOP-92): 24.7 µM (inactive) | GI50 (RXF 393): 23.1 µM (inactive) | GI50 (IGROV-1): 72.8 µM (inactive) | GI50 (EKVX): > 95.1 µM (inactive) | GI50 (SF-268): 34 µM (inactive) | GI50 (UO-31): 15.6 µM (inactive) | GI50 (OVCAR-3): > 100 µM (inactive) | GI50 (SNB-75): 20.9 µM (inactive) | GI50 (786-0): 10 µM (inactive) | GI50 (SF-295): 24 µM (inactive) | GI50 (HL-60): 39.2 µM (inactive) | GI50 (ACHN): 20.7 µM (inactive) | GI50 (SK-MEL-2): > 100 µM (inactive) | GI50 (LOX IMVI): 18.7 µM (inactive) | GI50 (TK-10): 16.5 µM (inactive) | GI50 (MCF7): > 100 µM (inactive) | GI50 (SNB-19): > 100 µM (inactive) | GI50 (SK-MEL-28): 37.2 µM (inactive) | GI50 (NCI-H226): > 100 µM (inactive)
